From patent US20100168112A1, “2-Substituted and 4-substituted aryl nitrone compounds” (RENOVIS, INC., priority 2004, published 2010)
Like-named read-outs stand apart in the source and are kept apart here.

Columns and labels:
[1] = Solubility measurement at pH 7.4; assay type: physicochemical; conditions: aqueous buffer, thermodynamic from solid, phosphate buffer pH 7.4, room temperature
Description: Nitrone compounds (>3 mg) of this invention were mixed with a phosphate buffer at pH 7.4 to make a >0.3 mg/mL mixture. The mixture was vortexed for more than 2 hours and equilibrated over 12 hours at room temperature. The equilibrated mixture was used to saturate a 0.45 μm Tuffryn syringe filter. After saturating, the remainder of the mixture was filtered through the saturated filter. The filtrate was diluted by 1, 10, 100, and 1000 fold and analyzed using a LC/MS/MS method with standard curve ranging from 1 to 1000 ng/mL.

[2] = Microsomal stability in human liver microsomes; assay type: in vitro ADME; conditions: NADPH, 37° C.
Description: Frozen Sprague-Dawley rat liver microsomes (RLM) were thawed on ice and gently mixed before use. The final reaction mixture consisted of a nitrone compound of this invention (at ˜500 ng/ml), 1 mM NADPH, and 0.5 mg/ml of RLM protein in 0.1 M PBS (pH7.4), with organic solvent concentration not exceeding 1% (v/v). Per set of incubations, a positive control compound was included. The mixture was first pre-incubated 3 to 5 minutes at 37° C. without NADPH, and the reaction was then initialized by the addition of NADPH and incubated at 37° C. for up to 30 minutes. An aliquot of the reaction mixture was sampled at the initiation of the reaction and at designated time after reaction started. The drawn samples were quenched with acetonitrile, diluted with mobile phase to ensure the detection of test article in the linear range, and analyzed by LC/MS/MS. Half-life or percentage of remaining nitrone compound was calculated using standard methods. A similar method, or a slight variation of it, was used to test the stability of nitrones in human liver microsomes (HLM).

[3] = DPPH free radical-scavenging/antioxidant assay; assay type: biochemical; conditions: 50 μM DPPH in 80% methanol; 24 h time point; read-out: EC50 (concentration at which a compound reduces by 50% the peak absorbance of DPPH at 520 nm)
Summary of the method: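 Compounds diluted 100-fold from DMSO stocks into 50 μM DPPH in 80% methanol; absorbance at 520 nm followed kinetically to steady state, with the 24 h reading used. EC50 interpolated from OD520 versus concentration; Trolox, BHA, PBN and S-PBN as positive controls, DMSO as vehicle.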

[4] = Pharmacokinetic evaluation following intravenous and oral administration in rats; assay type: in vivo; conditions: male, Sprague-Dawley; for Cmax / Tmax / bioavailability: 5 mg/kg; for Cmax: rat plasma; for Cmax / Tmax: oral gavage, 2 mg/mL at 2.5 mL/kg; for clearance / Vd / Tmax / bioavailability / half-life: plasma, rat; for clearance / Vd / half-life: 1 mg/kg; for clearance / Vd: intravenous administration, 1 mg/mL at 1.0 mL/kg; for clearance: read-out: CI (clearance) (converted); for Vd: read-out: Vd (volume of distribution); for bioavailability: po 2 mg/mL at 2.5 mL/kg vs iv 1 mg/mL at 1.0 mL/kg, dose-normalized, read-out: F (%) oral bioavailability; for half-life: intravenous, read-out: T1/2 elimination half life (converted)
Description: Male Sprague-Dawley rats were given at least 24 hours acclimation before experiment initiation. During acclimation period, all animals received food and water ad libitum. However, food (not water) was removed from the animal's cages up to 12 hours before initiation of the experiment. During the first 4 hours of experimentation, the animals received only water ad libitum. Two to three animals for iv and three animals for oral administration were tested. For iv formulation nitrone compounds of this invention were dissolved (1 mg/mL) in a mixture of 5% dimethyl acetamide (v/v), 0 to 4% Tween 80 (v/v), 10 to 40% PEG 400 (v/v) and the rest percentage of water (v/v). For oral formulation nitrone compounds of this invention were dissolved (2 mg/mL) in a mixture of 4% of 10% Tween in water and 96% of 0.5% carboxymethyl cellulose (medium viscosity) in water; or 4% of 10% Tween in water, 48% of 0.5% carboxymethyl cellulose (medium viscosity) in water, and 48% of 0.5% Hydroxypropyl Methylcellulose/0.2% Sodium Lauryl Sulfate in water. These formulations were stored at 5° C. until the experiment. Formulations were then stir-mixed at least half an hour before dosing. Exactly 200 μL of each left-over formulation was diluted with CH3CN/H2O for concentration analysis. The animals were weighed before dosing. The body weight was used to calculate the true dose for each animal:
IV dosing: • Dose volume (mL)=1.0 mL/kg The intravenous dose was administered through the jugular vein catheter or tail vein in less than 1 minute.
PO dosing: • Dose volume (mL)=2.5 mL/kg The oral dose was administered by oral gavage.
For IV dosing, blood samples were collected (using a pre-heparinized syringe) via the carotid artery or jugular vein catheter at t=2, 5, 15, 30, 60, 120, 180, 360, and 480 minutes post dosing. For PO dosing, blood samples were collected (using a pre-heparinized syringe) via the carotid artery or jugular vein catheter before dosing and at t=5, 15, 30, 60, 120, 180, 360, and 480 minutes post dosing. For some nitrone compounds a 1440 minutes (24 hours) sample was also taken for both IV and PO administrations. About 250 μL of blood was obtained at each time point from the animals. Equal volumes of 0.9% normal saline were replaced to prevent dehydration. The whole blood samples were maintained on ice until centrifugation. Blood samples were then centrifuged at 14,000 rpm for 10 minutes at 4° C. and the upper plasma layer transferred into a clean vial and stored at −80° C. The resulting plasma samples were then analyzed by mass spectroscopy using standard methods.
All the samples from above assays were analyzed on a PE-Sciex API 3000 triple quadrupole with a Turbo Ion Spray source. Nitrone compounds of this invention were separated from the matrix via a linear gradient reverse-phase chromatography using a C18 column, such as Thermo BDS Hypersil C18 (100×4.6 mm, 5 micron particle, 120A pore size). The mobile Phases were:
Nitrone compounds were detected by the mass spectrometer in the positive ion multiple reaction monitoring mode (MRM). For quantitative analysis, a standard curve was prepared by spiking a stock solution of the nitrone compound to the appropriate matrix to achieve a quantitation curve range and analyzed the standards in the same manner as the samples.
Pharmacokinetic parameters of the aryl nitrone compounds were determined by a noncompartmental analysis using WinNonlin-Pro (Version 4.1, Pharsight Corporation). Average and standard deviation of the parameters were calculated using standard formulas in Microsoft Excel.

CCI rats = test: Mechanical allodynia in mononeuropathic pain model (chronic constrictive injury, CCI, Bennett model); assay type: in vivo, SD rats; conditions: for PWT ipsilateral hind paw (von Frey): 50 mg/kg p.o. single dose, mean ± SEM; for anti-allodynic effect on ipsilateral hind paw vs vehicle (in words): single dose 50 mg/kg, p.o.
Text: Adult male SD rats weighing 250-300 gm (Charles River Laboratories, San Diego, Calif.) were used. The animal room was lighted artificially at a 12-hr light-dark cycle (7:00 A.M. to 7:00 P.M) with water and food supply ad libitum. Animals were allocated randomly into groups. Seven days before establishing the mononeuropathic pain disease model, rats were trained on a metal mesh floor, covered with a plastic box (10×10×18 cm) 1-2 hr per day to habituate. During the habituating phase, non-painful tactile stimulation on the plantar surface of each hind paw was induced by a set of calibrated von Frey filaments, through the mesh floor, as described in example 2.
Following the 7-day training phase, the animals were anesthetized by i.p. injection of sodium pentobarbital (65 mg/kg, Abbott Lab, Chicago, Ill.). Under aseptic procedures, the skin of the left thigh was cut open for ˜2 cm. Mid-thigh level of the common sciatic nerve was exposed after blunt separation of the muscles. Two 4-0 silk and one 4-0 chromic gut sutures (both from Ethicon, Somerville, N.J.) were loosely ligated around the nerve, with a 1-1.5 mm interval between each of them. Skin wound was then close with wound clips. The right side (i.e., the contralateral side) was not surgically injured. After recovery from surgery, rats showing post-surgery neurological deficits or poor grooming were excluded from the experiments. This surgical procedure (i.e., chronic constrictive injury, CCI, or Bennett model) to establish mononeuropathic pain disease model has been described elsewhere (Bennett, G. J. and Xie, Y. K.: A peripheral mononeuropathy in rat that produces disorders of pain sensation like those seen in man. Pain, 33: 87-107, 1988).
On days 1, 3, 4, 7, 9, 11, and 14 after surgery, animals were tested for mechanical allodynia with von Frey filaments as described previously. On or around post-surgical day 14, the ipsilateral hind paw, felt to 5 grams, an indication of allodynia began to manifest mechanical allodynia (i.e., amplified response to non-painful tactile stimulation by von Frey filaments). The contralateral hind paws remained above the 5-gram level (i.e., no allodynia).
After manifestation of this allodynia, Compound 62 (50 mg/kg, p.o.), Compound 63 (50 mg/kg, p.o.), Compound 66 (50 mg/kg, p.o.), Compound 23 (50 mg/kg, p.o.), 4-hydroxy-tempol (TEMPOL, 50 mg/kg, p.o.), or piroxicam (a COX1 inhibitor, 50 mg/kg, p.o.) were administered to randomly-assigned animals. Changes of mechanical allodynia in the ipsilateral hind paw were recorded at several time points over the course of up to 24 hr.

[5] = tested on: carrageenan-sensitized inflammatory model of rat; test: Carrageenan-sensitized thermal hyperalgesia (Hargreaves test); assay type: in vivo; conditions: 30 mg/kg oral, data not shown
Description: In this experiment, animals were habituated to the test environment for 2 days. Each rat was individually placed on a transparent perplex glass floor, covered with a plastic box (10×10×18 cm), and allowed 0.5-1 hr to habituate. After the acclimation period, basal thermal withdrawal latency (PWL, time interval between heat stimulation and paw withdrawal) was measured by exposing the plantar surface of a rats hind paw to a beam of radiant heat generated from a focused projection bulb through a transparent perplex glass surface (Hargreaves test; Hargreaves, K. R., Dubner, R., Brown, F., Flores, C. & Joris, J.: A new and sensitive method for measuring thermal nociception in cutaneous hyperalgesia. Pain, 32: 77-88, 1988). The PWL was averaged from at least two trials separated by a 2 min interval. A timer was used to measure the withdrawal latency and a cut of time of 20-sec was used to prevent tissue damage. Before the test on STZ-diabetic rats, the intensity of the radiating heat was adjusted to the level that caused naive animal to withdraw its paw at around 10 seconds.
After a stable basal PWL was obtained, the animals were briefly anesthetized with isoflurane (2-5% to effect). One side of their hind paws received an intraplantar injection of lambda carrageenan (2 mg in 100 microliter sterile saline, Sigma, St. Louis, Mo.). The contralateral side received no injection and served as an intra-subject control. The animals were then returned to their home cages and transferred to the individual testing chambers for heat thermal hyperalgesic testing, 2.5 hr after carrageenan injection. 3-hr post-carrageenan injection, PWLs of both hind paws (i.e., ipsilateral and contralateral) were measured at several time points post-carrageenan injection (15-min to 24-hr).
For compound testing, rats were randomly enrolled into groups that, immediately after the 3-hr post-carrageenan PWL was obtained, received oral dosing of Compound 62 (50 mg/kg), Compound 63 (50 mg/kg), vehicle (1 ml/kg), or indomethacin (30 mg/kg). Compound 62 and Compound 63 were prepared as a suspension in vehicle (96% of 0.5% CMC and 4% of 10% Tween 80) while indomethacin was prepared as a 30 mg/ml in normal saline.

[6] = read-out: Solubility @ pH 7.4 (μg/mL)

| Compound | solubility ([1]; read-out: Solubility @ pH 7.4) [µM] | solubility [1, 6] [µg/mL] | % of Nitrone Remaining at 30 min (Human) [2] [%] | EC50 [3] [µM] | Cmax [4] [ng/mL] | clearance [4] [mL/min/kg] | Vd [4] [L/kg] | Tmax [4] [min] | bioavailability [4] [%] | half-life [4] [min] | PWT ipsilateral hind paw (von Frey) (CCI rats; post-dosing time 30 min) [gm] | PWT ipsilateral hind paw (von Frey) (CCI rats; post-dosing time 60 min) [gm] | PWT ipsilateral hind paw (von Frey) (CCI rats; post-dosing time 300 min) [gm] | PWT ipsilateral hind paw (von Frey) (CCI rats; post-dosing time 1440 min) [gm] | PWT ipsilateral hind paw (von Frey) (CCI rats; post-dosing time −15 min (pre-dose)) [gm] | anti-allodynic effect on ipsilateral hind paw vs vehicle (in words) (CCI rats) | effect on carrageenan-sensitized heat hyperalgesia (in words) [5] |
| --- | --- | --- | --- | --- | --- | --- | --- | --- | --- | --- | --- | --- | --- | --- | --- | --- | --- |
| CC(C)(C)/[N+]([O-])=C/c1cccnc1S(C)(=O)=O [Compound 73, N-tert-Butyl-C-(2-methanesulfonyl-pyridine-3-yl)nitrone] | > 11300 | > 2900 | 100 | > 1000 | 4170 | 3.33 | 0.8 | 85.2 | 72.2 | 166 | – | – | – | – | – | – | – |
| CC(C)(C)/[N+]([O-])=C/c1cc2ccccc2nc1S(C)(=O)=O [Compound 74, N-tert-Butyl-C-(2-methanesulfonyl-quinoline-3-yl)nitrone] | 96 | 29.4 | 75.7 | > 1000 | 12 | 376 | 10.7 | 11.4 | 9.4 | 19.2 | – | – | – | – | – | – | – |
| CS(=O)(=O)c1ncccc1/C=[N+](\[O-])Cc1ccccc1 [Compound 75, N-Benzyl-C-(2-methanesulfonyl-pyridine-3-yl)nitrone] | 2920 | 848 | 95.1 | > 1000 | 1030 | 21.8 | 1.07 | 11.4 | 50.2 | 34.2 | – | – | – | – | – | – | – |
| CC1(C)CC(O)CC(C)(C)N1[O] [TEMPOL, 4-hydroxy-tempol, reference compound] | – | – | – | – | – | – | – | – | – | – | 4.80 ± 0.49 | 4.80 ± 0.49 | 5.48 ± 1.09 | 4.80 ± 1.02 | 4.00 ± 0.89 | no significant anti-allodynic effect | – |
| COc1ccc2c(c1)c(CC(=O)O)c(C)n2C(=O)c1ccc(Cl)cc1 [indomethacin, reference compound] | – | – | – | – | – | – | – | – | – | – | – | – | – | – | – | – | significantly reversed carrageenan-sensitized heat hyperalgesia |
| CN1C(C(=O)Nc2ccccn2)=C(O)c2ccccc2S1(=O)=O [piroxicam, reference compound] | – | – | – | – | – | – | – | – | – | – | – | – | – | – | – | long-lasting anti-allodynic effect | – |
